Results published in PMC8632988, “Inhibition of SYK and cSrc kinases can protect bone and cartilage in preclinical models of osteoarthritis and rheumatoid arthritis” (Scientific Reports, 2021).

Legend:
Experiment in all cases: Kinase selectivity profile assay
Assay type in all cases: biochemical
Details in all cases: 500 nM; relative to DMSO; read-out: Residual enzymatic activity
LIMK2 = target: T1, LIMK2 (Homo sapiens, UniProt P53671)
T1 construct: purchased Reaction Biology Corporation
Procedure, shortened: (§1)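 Radiometric kinase assay run by a standard protocol. Unbound phosphate was removed by washing filters in phosphoric acid, and product radioactivity gave percent remaining kinase activity versus DMSO vehicle reactions. Run in duplicate.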

CDK2/Cyclin A1 = target: T2, CDK2/Cyclin A1 (Homo sapiens, UniProt P24941)
T2 construct: purchased Reaction Biology Corporation
Procedure, shortened: as §1

MLCK2/MYLK2 = target: T3, MLCK2/MYLK2 (Homo sapiens, UniProt Q9H1R3)
T3 construct: purchased Reaction Biology Corporation
Procedure, shortened: as §1

PKN2/PRK2 = target: T4, PKN2/PRK2 (Homo sapiens, UniProt Q16513)
T4 construct: purchased Reaction Biology Corporation
Procedure, shortened: as §1

STK25/YSK1 = target: T5, STK25/YSK1 (Homo sapiens, UniProt O00506)
T5 construct: purchased Reaction Biology Corporation
Procedure, shortened: as §1

WNK3 = target: T6, WNK3 (Homo sapiens, UniProt Q9BYP7)
T6 construct: purchased Reaction Biology Corporation
Procedure, shortened: as §1

RSK4 = target: T7, RSK4 (Homo sapiens, UniProt Q9UK32)
T7 construct: purchased Reaction Biology Corporation
Procedure, shortened: as §1

BRSK1 = target: T8, BRSK1 (Homo sapiens, UniProt Q8TDC3)
T8 construct: purchased Reaction Biology Corporation
Procedure, shortened: as §1

PASK = target: T9, PASK (Homo sapiens, UniProt Q96RG2)
T9 construct: purchased Reaction Biology Corporation
Procedure, shortened: as §1

PKCtheta = target: T10, PKCtheta (Homo sapiens, UniProt Q04759)
T10 construct: purchased Reaction Biology Corporation
Procedure, shortened: as §1

HGK/MAP4K4 = target: T11, HGK/MAP4K4 (Homo sapiens, UniProt O95819)
T11 construct: purchased Reaction Biology Corporation
T11 sequence (O95819 whole entry): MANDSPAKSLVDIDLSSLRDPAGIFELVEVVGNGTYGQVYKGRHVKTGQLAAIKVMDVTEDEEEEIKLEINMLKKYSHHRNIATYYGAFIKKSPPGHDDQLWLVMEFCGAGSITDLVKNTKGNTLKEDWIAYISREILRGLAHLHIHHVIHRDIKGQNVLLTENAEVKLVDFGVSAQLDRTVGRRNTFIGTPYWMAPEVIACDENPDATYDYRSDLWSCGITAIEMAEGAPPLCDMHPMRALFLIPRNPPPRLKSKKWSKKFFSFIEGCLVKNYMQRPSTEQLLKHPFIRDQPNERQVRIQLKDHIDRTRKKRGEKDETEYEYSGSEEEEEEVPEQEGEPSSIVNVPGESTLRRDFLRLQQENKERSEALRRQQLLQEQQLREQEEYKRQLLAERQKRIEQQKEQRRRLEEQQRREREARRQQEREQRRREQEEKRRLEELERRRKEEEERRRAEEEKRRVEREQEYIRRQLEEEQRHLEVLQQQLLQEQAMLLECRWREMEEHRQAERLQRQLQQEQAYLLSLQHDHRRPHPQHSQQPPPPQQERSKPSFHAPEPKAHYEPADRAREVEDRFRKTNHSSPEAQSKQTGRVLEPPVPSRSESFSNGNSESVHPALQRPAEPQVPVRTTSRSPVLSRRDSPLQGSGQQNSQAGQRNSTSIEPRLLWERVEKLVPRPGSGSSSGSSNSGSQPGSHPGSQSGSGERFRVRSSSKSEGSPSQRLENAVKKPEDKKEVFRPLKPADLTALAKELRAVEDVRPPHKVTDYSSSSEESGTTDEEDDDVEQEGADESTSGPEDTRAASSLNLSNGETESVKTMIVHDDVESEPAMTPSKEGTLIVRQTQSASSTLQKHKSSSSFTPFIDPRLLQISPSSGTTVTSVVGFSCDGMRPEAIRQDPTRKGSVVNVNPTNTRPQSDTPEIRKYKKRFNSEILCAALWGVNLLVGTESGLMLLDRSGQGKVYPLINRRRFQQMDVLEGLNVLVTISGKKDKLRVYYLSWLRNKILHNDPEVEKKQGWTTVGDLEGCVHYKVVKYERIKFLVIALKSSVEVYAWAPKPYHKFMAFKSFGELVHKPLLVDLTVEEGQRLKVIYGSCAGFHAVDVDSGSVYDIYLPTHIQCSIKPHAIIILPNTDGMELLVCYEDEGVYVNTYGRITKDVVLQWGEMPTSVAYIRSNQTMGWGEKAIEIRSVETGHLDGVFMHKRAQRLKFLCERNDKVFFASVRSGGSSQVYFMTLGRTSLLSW
Procedure, shortened: as §1

CK1g1 = target: T12, CK1g1 (Homo sapiens, UniProt Q9HCP0)
T12 construct: purchased Reaction Biology Corporation
Procedure, shortened: as §1

FER = target: T13, FER (Homo sapiens, UniProt P16591)
T13 construct: purchased Reaction Biology Corporation
Procedure, shortened: as §1

PLK4/SAK = target: T14, PLK4/SAK (Homo sapiens, UniProt O00444)
T14 construct: purchased Reaction Biology Corporation
Procedure, shortened: as §1

CLK2 = target: T15, CLK2 (Homo sapiens, UniProt P49760)
T15 construct: purchased Reaction Biology Corporation
Procedure, shortened: as §1

BLK = target: T16, BLK (Homo sapiens, UniProt P51451)
T16 construct: purchased Reaction Biology Corporation (assay service)
Procedure, shortened: as §1

SGK3/SGKL = target: T17, SGK3/SGKL (Homo sapiens, UniProt Q96BR1)
T17 construct: purchased Reaction Biology Corporation
T17 sequence (Q96BR1 whole entry): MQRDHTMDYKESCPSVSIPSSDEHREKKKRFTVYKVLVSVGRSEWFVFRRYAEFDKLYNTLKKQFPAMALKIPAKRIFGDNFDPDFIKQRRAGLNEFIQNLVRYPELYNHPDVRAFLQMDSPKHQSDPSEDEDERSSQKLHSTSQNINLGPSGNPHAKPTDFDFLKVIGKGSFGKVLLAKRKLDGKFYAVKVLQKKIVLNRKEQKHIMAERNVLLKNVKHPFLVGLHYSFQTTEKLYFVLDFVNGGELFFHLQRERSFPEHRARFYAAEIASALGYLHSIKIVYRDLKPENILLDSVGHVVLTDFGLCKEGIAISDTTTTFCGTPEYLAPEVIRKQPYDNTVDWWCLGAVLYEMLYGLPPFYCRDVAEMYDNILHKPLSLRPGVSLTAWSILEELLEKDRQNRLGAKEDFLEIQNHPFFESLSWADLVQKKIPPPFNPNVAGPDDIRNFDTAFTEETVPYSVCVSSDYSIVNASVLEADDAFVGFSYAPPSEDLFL
Procedure, shortened: as §1

AKT3 = target: T18, AKT3 (Homo sapiens, UniProt Q9Y243)
T18 construct: purchased Reaction Biology Corporation
Procedure, shortened: as §1

IKKe/IKBKE = target: T19, IKKe/IKBKE (Homo sapiens, UniProt Q14164)
T19 construct: purchased Reaction Biology Corporation
Procedure, shortened: as §1

PBK/TOPK = target: T20, PBK/TOPK (Homo sapiens, UniProt Q96KB5)
T20 construct: purchased Reaction Biology Corporation
T20 sequence (Q96KB5 whole entry): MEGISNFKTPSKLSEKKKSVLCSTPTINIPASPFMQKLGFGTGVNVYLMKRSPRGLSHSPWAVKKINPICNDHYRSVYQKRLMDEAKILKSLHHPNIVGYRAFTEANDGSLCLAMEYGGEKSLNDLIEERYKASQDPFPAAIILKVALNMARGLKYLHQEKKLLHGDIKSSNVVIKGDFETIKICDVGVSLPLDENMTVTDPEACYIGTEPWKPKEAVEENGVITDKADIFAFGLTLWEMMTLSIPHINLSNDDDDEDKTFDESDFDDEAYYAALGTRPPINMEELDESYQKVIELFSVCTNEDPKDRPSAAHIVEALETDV
Procedure, shortened: as §1

IGF1R = target: T21, IGF1R (Homo sapiens, UniProt P08069)
T21 construct: purchased Reaction Biology Corporation
Procedure, shortened: as §1

FGR = target: T22, FGR (Homo sapiens, UniProt P09769)
T22 construct: purchased Reaction Biology Corporation (assay service)
Procedure, shortened: as §1

FGFR4 = target: T23, FGFR4 (Homo sapiens, UniProt P22455)
T23 construct: purchased Reaction Biology Corporation
Procedure, shortened: as §1

BMPR2 = target: T24, BMPR2 (Homo sapiens, UniProt Q13873)
T24 construct: purchased Reaction Biology Corporation
Procedure, shortened: as §1

MEK1 = target: T25, MEK1 (Homo sapiens, UniProt Q02750)
T25 construct: purchased Reaction Biology Corporation
Procedure, shortened: as §1

MEK2 = target: T26, MEK2 (Homo sapiens, UniProt P36507)
T26 construct: purchased Reaction Biology Corporation
Procedure, shortened: as §1

RSK1 = target: T27, RSK1 (Homo sapiens, UniProt Q15418)
T27 construct: purchased Reaction Biology Corporation
T27 sequence (Q15418 whole entry): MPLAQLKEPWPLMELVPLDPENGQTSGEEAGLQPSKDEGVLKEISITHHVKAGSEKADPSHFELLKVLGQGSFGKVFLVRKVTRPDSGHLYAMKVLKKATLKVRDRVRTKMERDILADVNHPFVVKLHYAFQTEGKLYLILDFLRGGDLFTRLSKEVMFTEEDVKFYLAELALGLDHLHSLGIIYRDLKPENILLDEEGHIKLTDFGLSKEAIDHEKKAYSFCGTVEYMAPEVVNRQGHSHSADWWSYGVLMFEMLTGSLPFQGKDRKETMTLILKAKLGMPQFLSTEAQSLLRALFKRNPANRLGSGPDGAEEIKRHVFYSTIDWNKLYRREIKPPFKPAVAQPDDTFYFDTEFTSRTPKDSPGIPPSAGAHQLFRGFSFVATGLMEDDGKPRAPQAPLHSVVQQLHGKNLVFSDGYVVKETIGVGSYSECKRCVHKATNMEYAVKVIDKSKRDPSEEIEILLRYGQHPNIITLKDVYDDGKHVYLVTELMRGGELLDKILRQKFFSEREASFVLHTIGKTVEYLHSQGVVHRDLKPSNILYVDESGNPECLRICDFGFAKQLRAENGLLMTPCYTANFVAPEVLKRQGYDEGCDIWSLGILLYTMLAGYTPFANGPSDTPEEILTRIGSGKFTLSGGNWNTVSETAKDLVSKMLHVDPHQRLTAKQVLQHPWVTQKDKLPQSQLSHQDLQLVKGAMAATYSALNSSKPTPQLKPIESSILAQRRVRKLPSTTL
Procedure, shortened: as §1

PKCmu/PRKD1 = target: T28, PKCmu/PRKD1 (Homo sapiens, UniProt Q15139)
T28 construct: purchased Reaction Biology Corporation
Procedure, shortened: as §1

CDC7/DBF4 = target: T29, CDC7/DBF4 (Homo sapiens, UniProt O00311)
T29 construct: purchased Reaction Biology Corporation
Procedure, shortened: as §1

CHK1 = target: T30, CHK1 (Homo sapiens, UniProt O14757)
T30 construct: purchased Reaction Biology Corporation
T30 sequence (O14757 whole entry): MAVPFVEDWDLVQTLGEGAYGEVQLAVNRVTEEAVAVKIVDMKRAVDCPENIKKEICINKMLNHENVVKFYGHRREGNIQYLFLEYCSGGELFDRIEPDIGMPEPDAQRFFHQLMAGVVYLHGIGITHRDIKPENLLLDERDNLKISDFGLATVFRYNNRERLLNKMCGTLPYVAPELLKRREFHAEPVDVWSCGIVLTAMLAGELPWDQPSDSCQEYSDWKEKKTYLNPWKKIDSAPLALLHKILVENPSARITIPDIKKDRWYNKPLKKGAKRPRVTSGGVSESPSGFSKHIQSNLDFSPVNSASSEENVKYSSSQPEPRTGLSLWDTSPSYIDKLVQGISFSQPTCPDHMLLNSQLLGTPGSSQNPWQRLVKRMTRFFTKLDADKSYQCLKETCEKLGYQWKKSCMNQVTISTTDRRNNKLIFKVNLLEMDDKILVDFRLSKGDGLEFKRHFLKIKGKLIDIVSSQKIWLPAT
Procedure, shortened: as §1

TLK1 = target: T31, TLK1 (Homo sapiens, UniProt Q9UKI8)
T31 construct: purchased Reaction Biology Corporation
Procedure, shortened: as §1

HIPK3 = target: T32, HIPK3 (Homo sapiens, UniProt Q9H422)
T32 construct: purchased Reaction Biology Corporation
Procedure, shortened: as §1

PAK6 = target: T33, PAK6 (Homo sapiens, UniProt Q9NQU5)
T33 construct: purchased Reaction Biology Corporation
T33 sequence (Q9NQU5 whole entry): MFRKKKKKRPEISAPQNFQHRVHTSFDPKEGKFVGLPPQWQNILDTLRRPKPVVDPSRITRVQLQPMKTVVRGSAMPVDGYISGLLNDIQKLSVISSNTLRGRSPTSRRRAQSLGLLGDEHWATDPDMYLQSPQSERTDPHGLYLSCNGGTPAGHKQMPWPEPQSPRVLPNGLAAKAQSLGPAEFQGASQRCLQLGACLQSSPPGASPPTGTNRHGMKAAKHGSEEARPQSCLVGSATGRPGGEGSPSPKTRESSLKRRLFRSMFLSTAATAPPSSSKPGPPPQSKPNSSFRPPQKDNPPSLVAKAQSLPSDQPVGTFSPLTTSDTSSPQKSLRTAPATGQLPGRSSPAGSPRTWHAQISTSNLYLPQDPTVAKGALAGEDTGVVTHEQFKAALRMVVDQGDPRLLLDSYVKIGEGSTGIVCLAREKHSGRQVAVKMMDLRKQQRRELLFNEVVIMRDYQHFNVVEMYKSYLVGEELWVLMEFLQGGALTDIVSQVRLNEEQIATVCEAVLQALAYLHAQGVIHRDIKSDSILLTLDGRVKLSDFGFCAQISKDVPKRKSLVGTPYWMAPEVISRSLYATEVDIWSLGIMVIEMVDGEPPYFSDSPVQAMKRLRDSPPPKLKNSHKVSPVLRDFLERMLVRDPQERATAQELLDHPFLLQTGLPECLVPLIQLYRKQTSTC
Procedure, shortened: as §1

STK33 = target: T34, STK33 (Homo sapiens, UniProt Q9BYT3)
T34 construct: purchased Reaction Biology Corporation
Procedure, shortened: as §1

DYRK2 = target: T35, DYRK2 (Homo sapiens, UniProt Q92630)
T35 construct: purchased Reaction Biology Corporation
Procedure, shortened: as §1

CK1d = target: T36, CK1d (Homo sapiens, UniProt P48730)
T36 construct: purchased Reaction Biology Corporation
Procedure, shortened: as §1

TRKB = target: T37, TRKB (Homo sapiens, UniProt Q16620)
T37 construct: purchased Reaction Biology Corporation
Procedure, shortened: as §1

CK2a2 = target: T38, CK2a2 (Homo sapiens, UniProt P19784)
T38 construct: purchased Reaction Biology Corporation
Procedure, shortened: as §1

MSK1/RPS6KA5 = target: T39, MSK1/RPS6KA5 (Homo sapiens, UniProt O75582)
T39 construct: purchased Reaction Biology Corporation
Procedure, shortened: as §1

TRKA = target: T40, TRKA (Homo sapiens, UniProt P04629)
T40 construct: purchased Reaction Biology Corporation
T40 sequence (P04629 33-796): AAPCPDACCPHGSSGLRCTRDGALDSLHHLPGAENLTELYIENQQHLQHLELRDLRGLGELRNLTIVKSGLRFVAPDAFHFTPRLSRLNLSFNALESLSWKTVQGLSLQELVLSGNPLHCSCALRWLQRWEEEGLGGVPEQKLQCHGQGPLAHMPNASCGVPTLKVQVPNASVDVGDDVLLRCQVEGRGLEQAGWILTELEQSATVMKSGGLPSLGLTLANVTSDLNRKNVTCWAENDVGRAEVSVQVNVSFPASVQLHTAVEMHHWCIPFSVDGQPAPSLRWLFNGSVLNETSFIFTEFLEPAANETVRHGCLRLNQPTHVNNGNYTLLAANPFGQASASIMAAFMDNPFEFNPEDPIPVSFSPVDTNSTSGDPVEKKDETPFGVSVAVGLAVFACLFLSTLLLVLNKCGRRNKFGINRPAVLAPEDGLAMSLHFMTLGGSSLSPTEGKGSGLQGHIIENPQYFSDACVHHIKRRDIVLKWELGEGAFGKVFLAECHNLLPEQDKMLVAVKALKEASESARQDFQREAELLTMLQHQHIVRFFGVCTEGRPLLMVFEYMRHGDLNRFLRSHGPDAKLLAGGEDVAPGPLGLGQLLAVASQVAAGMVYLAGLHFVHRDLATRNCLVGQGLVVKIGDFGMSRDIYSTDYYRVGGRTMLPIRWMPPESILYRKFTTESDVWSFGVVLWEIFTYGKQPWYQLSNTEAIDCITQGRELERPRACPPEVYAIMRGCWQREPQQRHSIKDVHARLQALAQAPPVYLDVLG
Procedure, shortened: as §1

SMILES: COc1cc(Nc2ncc(F)c(Nc3ccc4c(n3)NC(=O)C(C)(C)O4)n2)cc(OC)c1OC [R406, reference compound]
- remaining activity at 0.5 µM (LIMK2): 77.5%
- remaining activity at 0.5 µM (CDK2/Cyclin A1): 59.5%
- remaining activity at 0.5 µM (MLCK2/MYLK2): 89.2%
- remaining activity at 0.5 µM (PKN2/PRK2): 85.4%
- remaining activity at 0.5 µM (STK25/YSK1): 90.7%
- remaining activity at 0.5 µM (WNK3): 77.7%
- remaining activity at 0.5 µM (RSK4): 45.6%
- remaining activity at 0.5 µM (BRSK1): 61.6%
- remaining activity at 0.5 µM (PASK): 106%
- remaining activity at 0.5 µM (PKCtheta): 99.5%
- remaining activity at 0.5 µM (HGK/MAP4K4): 75.3%
- remaining activity at 0.5 µM (CK1g1): 92.7%
- remaining activity at 0.5 µM (FER): 22.9%
- remaining activity at 0.5 µM (PLK4/SAK): 17.2%
- remaining activity at 0.5 µM (CLK2): 81.6%
- remaining activity at 0.5 µM (BLK): 16.7%
- remaining activity at 0.5 µM (SGK3/SGKL): 100%
- remaining activity at 0.5 µM (AKT3): 95.2%
- remaining activity at 0.5 µM (IKKe/IKBKE): 16.1%
- remaining activity at 0.5 µM (PBK/TOPK): 100%
- remaining activity at 0.5 µM (IGF1R): 60.3%
- remaining activity at 0.5 µM (FGR): 15.7%
- remaining activity at 0.5 µM (FGFR4): 58%
- remaining activity at 0.5 µM (BMPR2): 71.1%
- remaining activity at 0.5 µM (MEK1): 87.2%
- remaining activity at 0.5 µM (MEK2): 83.5%
- remaining activity at 0.5 µM (RSK1): 66.9%
- remaining activity at 0.5 µM (PKCmu/PRKD1): 82.1%
- remaining activity at 0.5 µM (CDC7/DBF4): 82.6%
- remaining activity at 0.5 µM (CHK1): 78.6%
- remaining activity at 0.5 µM (TLK1): 75.1%
- remaining activity at 0.5 µM (HIPK3): 96.4%
- remaining activity at 0.5 µM (PAK6): 81.2%
- remaining activity at 0.5 µM (STK33): 41.5%
- remaining activity at 0.5 µM (DYRK2): 64.1%
- remaining activity at 0.5 µM (CK1d): 78.7%
- remaining activity at 0.5 µM (TRKB): 28%
- remaining activity at 0.5 µM (CK2a2): 21.4%
- remaining activity at 0.5 µM (MSK1/RPS6KA5): 97.3%
- remaining activity at 0.5 µM (TRKA): 25.7%
